Laboratory results from patent publication US10934303B2, “Aryl ethene derivative and pharmaceutical composition containing same as active ingredient” (priority 2016, dated 2021).
Read-outs that look alike come from different tables or passages of the source.

What was measured:
[1] = target: GST-bound ERR gamma ligand-binding domain (LBD) (Homo sapiens (Human), UniProt P62508); assay: ERRγ binding assay (inverse agonist assay), TR-FRET; conditions: TR-FRET, PGC1a coactivator; read-out: Binding Assay, IC50 ERRγ
Experimental: 1) ERRγ Binding Assay (Inverse Agonist Assay)
(§3) The arylethene derivative of the present invention was sequentially added to a 384 well plate from a concentration of 10 μM to a final concentration of two-fold dilution. […] After all reagents were added, a reaction was carried out with gentle shaking at 20° C. for 1 hour, and after the reaction, a binding activity was measured by a TR-FRET method.

[2] = target: GST-bound ERR alpha LBD (Homo sapiens (Human), UniProt P11474); conditions: TR-FRET, PGC1a coactivator; read-out: Binding Assay, IC50 ERRα
Experimental: as §3

[3] = target: GST-bound ER alpha ligand-binding domain (LBD) (Homo sapiens (Human), UniProt P03372); assay: biochemical; conditions: TR-FRET, beta-estradiol 4 nM as agonist; read-out: Binding Assay, IC50 ERα
Experimental: as §3

[4] = system: ERRγ; type: cell-based
Experimental: AD293 was cultured in a 24-well plate for 24 hours, using a DMEM High glucose culture medium (Hyclone, USA) to which 0.5% FBS was added at a concentration of 9×10^4/well. The culture medium was replaced with a DMEM High glucose culture medium to which 10% FBS was added, treatment was performed with a mixture of a TransIT-LT1 transfection reagent (Mirus, USA) and pCMX-Gal4-ERRγ, pFR-luciferase reporter plasmid, pCMV-β-gal, and culturing was performed for 24 hours. Thereafter, a luciferase activity assay and a β-gal assay were performed, respectively, with a lysate obtained after treatment with the arylethene derivative of the present invention for 24 hours. All results were derived from three or more independent repetitive experiments.

[5] = target: T1, hERG channel (Homo sapiens (Human), UniProt Q12809); assay: biochemical
[6] = target: CYP1A2 (Homo sapiens (Human), UniProt P05177); assay: Cytochrome P450 activity inhibition, CYP1A2; type: in vitro ADME; conditions: 10 μM, human liver microsomes, Phenacetin substrate
Text: (§1) 1) Cytochrome P450 (CYP450) Activity Inhibition Evaluation

[7] = target: CYP2C9 (Homo sapiens (Human), UniProt P11712); assay: Cytochrome P450 activity inhibition, CYP2C9; type: in vitro ADME; conditions: 10 μM, human liver microsomes, Diclofenac substrate
Text: as §1

[8] = target: CYP2C19 (Homo sapiens (Human), UniProt P33261); assay: Cytochrome P450 activity inhibition, CYP2C19; type: in vitro ADME; conditions: 10 μM, human liver microsomes, S-mephenytoin substrate
Text: as §1

[9] = target: CYP2D6 (Homo sapiens (Human), UniProt P10635); assay: Cytochrome P450 activity inhibition, CYP2D6; type: in vitro ADME; conditions: 10 μM, human liver microsomes, Dextromethorphan substrate
Text: as §1

[10] = target: CYP3A4 (Homo sapiens (Human), UniProt P08684); assay: Cytochrome P450 activity inhibition, CYP3A4; type: in vitro ADME; conditions: 10 μM, human liver microsomes, Midazolam substrate
Text: as §1

[11] = in vitro; type: in vitro ADME; set-up: Papp at 5 h: dose or concentration left out as unconfirmed; conditions: PBS pH 7.4, 25° C.; for Papp at 5 h: PAMPA, read-out: Permeability Pampa
Experimental: 3) Parallel Artificial Membrane Permeability Assay (PAMPA) Evaluation
PAMPA is a method which has been developed for testing cell membrane permeability of a material in a test tube, and has been performed using a lipid tri-layer PVDF membrane available from Corning Gentest (NY, US), the used reagents were all purchased from Sigma (MO, US). First, a test material is diluted in PBS (pH 7.4) to a final concentration of 10 mM, 300 mL of the solution is added to the bottom well of a 96-transwell equipped with a PVDF membrane, and 200 mL of PBS is added to the upper well. Then, a plate is reacted at 25° C. for 5 hours, 20 mL of the solution in each well is transferred to a new container, and 80 mL of acetonitrile containing an internal standard material (4 mM chloropropamide) is added thereto. A concentration of the material in the solution is analyzed using LC-MS/MS (ThermoFisher Scientific, MO, US), and the transmittance of the material is calculated according to the equation reported in the reference document.

[12] = in vivo; type: in vivo; conditions: rat
Experimental: An oral administration group fasts the day before.
Blood of each animal is collected at 0 hour.
Into a tail vein of an intravenous administration group (IV), a drug is injected at a dose of 1 mg/kg (syringe).
To an oral administration group (PO), a drug is orally administered at a dose of 10 mg/kg (oral zondec)
After administration, blood of the intravenous administration group was collected through a jugular vein 8 times at 0.08, 0.25, 0.5, 1, 2, 4, 6, and 8 hours. One collected blood amount is 400 to 500 ul.
After administration, blood of the oral administration group was collected through a jugular vein 6 times at 0.25, 0.5, 1, 4, 6 and 8 hours. One collected blood amount is 400 to 500 ul.
Supernatant plasma is collected by a centrifuge.
The supernatant plasma was injected into a LC-MS/MS system and the drug is analyzed.

[13] = system: CAL-62 anaplastic thyroid cancer cell line; type: cell-based
[14] = system: ERRγ mRNA; assay: Quantitative RT-PCR, ERRγ mRNA in CAL62 cells; type: cell-based
Experimental: (§2) Total RNA was separated using Trizol (Invitrogen, Carlsbad, Calif.). Total RNA (2 ug) was reverse-transcribed into cDNA with RevertAid First Strand cDNA Synthesis Kit (Thermo Scientific, Pittsburgh, Pa.). Genes were amplified with a ViiA 7 Real-Time PCR System instrument (Applied Biosystems) using the primer of each target gene and YBR Green PCR master mix (Applied Biosystems, Foster City, Calif.), using a cDNA template. The primer sequence of each target gene is as follows: ERRγ (forward, 5′-CAG ACG CCA GTG GGA GCT A-3′; reverse, 5′-TGGCGAGTCAAGTCCGTTCT-3′), NIS (forward, 5′-TCTAACCGATGCTCACCTCTTCTG-3′; reverse, 5′-AGATGATGGCACCTCCTTGAACC-3′), and acidic ribosomal protein 36B4 (forward, 5′-CCA CGC TGC TGA ACA TGC T-3′; reverse, 5′-TCGAACACCTGCTGGATGAC-3′). Each target gene was normalized using a 36B4 gene.

[15] = system: NIS mRNA; assay: Quantitative RT-PCR, NIS mRNA in CAL62 cells; type: cell-based
Experimental: as §2

[16] = system: ERRγ protein; assay: Western blot, ERRγ protein in CAL62 cells; type: cell-based; conditions: 24 hours
[17] = system: NIS protein; assay: Western blot, total and membrane-localized NIS protein in CAL62 cells; type: cell-based
[18] = system: CAL62 cells; assay: Clonogenic assay with 131I; type: cell-based
Experimental: The cells were plated in a 6-well plate, and allowed to stand for 24 hours. […] The cells were washed with cold bHBSS, and allowed to stand in a normalized culture medium for a time corresponding to six doublings. Finally, the cells were fixed in a 4% paraformaldehyde (PFA) solution and stained with 0.05% crystal violet.

[19] = system: CAL-62/effluc tumor; assay: 125I bio-distribution study in CAL-62/effluc mouse tumor model; type: in vivo, Nude mice (Balb/c nu/nu)
Experimental: (§4) Nude mice (Balb/c nu/nu, female, 6 weeks old) were used, and all animals were normally raised in DMRC center animal laboratory of Kyungbuk National University Hospital in Chilgok. 5×10^6 CAL-62/effluc cells were subcutaneously injected into the left femoral region of the nude mouse to form a tumor. The tumor was extracted, divided into small pieces (20 mg or more), and then intradermally injected into the nude mouse to form a tumor.
After 4 hours of administration, all organs including a parent tumor were extracted, and each organ was weighed. Thereafter, each organ was transferred to a 5 mL test tube, and radioactivity in the organ was measured using a gamma counter.

[20] = system: CAL-62/effluc tumor; assay: Tumor growth by bioluminescent imaging in CAL-62/effluc mouse tumor model; type: in vivo, Nude mice (Balb/c nu/nu); conditions: 100 mpk, 200 mpk orally daily for 6 days
Experimental: as §4
In order to observe a difference in tumor growth between before administration and after administration, optical imaging (bioluminescent imaging) was performed.
For obtaining an optical image, D-luciferin (3 mg/mouse) was intraperitoneally injected to the mouse. After about 10 minutes of injection, the mouse was anesthetized by inhalation (I-2% isoflurane gas), and then positioned on a IVIS Lumina III (PerkinElmer) imaging bed. The time for obtaining the image was automatically set, and then an optical image was obtained.

[21] = target: T1, hERG channel; conditions: read-out: hERG IC50; fluorescence polarization assay
[22] = 1 μM, 30 minutes, 37° C., NADPH
[23] = 1 μM, 30 minutes, 37° C., NADPH; remark: listed apart in the source
[24] = 1 μM, 30 minutes, 37° C., NADPH; remark: listed apart in the source
Experimental: 2) Microsomal Stability Evaluation
(§5) Four liver microsomes (Human, Dog, Rat, Mouse 0.5 mg/ml) with a 0.1 M phosphate buffer solution (pH 7.4), and the arylethene derivative of the present invention were added to a concentration of 1 μM, culturing was performed at 37° C. for 5 minutes in advance, a NADPH regeneration system solution was added thereto, and culturing was performed at 37° C. for 30 minutes. Thereafter, in order to complete the reaction, an acetonitrile solution containing an internal standard material (chlorpropamide) was added thereto, centrifugation (14,000 rpm, 4° C.) was performed for 5 minutes, and a supernatant was injected into a LC-MS/MS system to analyze the substrate drug, thereby evaluating metabolism stability to the arylethene derivative of the present invention.

[25] = 1 μM, 30 minutes, 37° C., NADPH; remark: listed apart in the source
Experimental: 2) Microsomal Stability Evaluation
as §5

[26] = target: ERRβ (Homo sapiens, UniProt O95718); conditions: TR-FRET, PGC1a coactivator; read-out: Binding Assay, IC50 ERRβ
Experimental: as §3

[27] = system: pERK1/2; assay: Western blot, phosphorylated ERK1/2 in CAL62 cells; type: cell-based; conditions: MEK inhibitor
[28] = system: CAL-62/effluc tumor; conditions: background statement; cited from earlier work
[29] = activity relative to reference compound GSK5182, 10 μM

CYP2C19, sequence (P33261 whole entry): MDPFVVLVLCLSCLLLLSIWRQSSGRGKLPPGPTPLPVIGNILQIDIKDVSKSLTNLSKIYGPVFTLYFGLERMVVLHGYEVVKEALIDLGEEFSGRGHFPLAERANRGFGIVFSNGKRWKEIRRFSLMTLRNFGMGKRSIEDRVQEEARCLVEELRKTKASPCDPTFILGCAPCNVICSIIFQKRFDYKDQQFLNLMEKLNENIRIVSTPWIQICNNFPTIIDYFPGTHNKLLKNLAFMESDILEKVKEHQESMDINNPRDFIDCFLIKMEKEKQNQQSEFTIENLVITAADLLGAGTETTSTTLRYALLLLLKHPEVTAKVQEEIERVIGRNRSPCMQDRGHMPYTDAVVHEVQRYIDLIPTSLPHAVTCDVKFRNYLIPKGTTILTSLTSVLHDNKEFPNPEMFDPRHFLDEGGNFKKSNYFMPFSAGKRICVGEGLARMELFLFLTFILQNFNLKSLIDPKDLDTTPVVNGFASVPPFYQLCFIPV
CYP1A2, sequence (P05177 whole entry): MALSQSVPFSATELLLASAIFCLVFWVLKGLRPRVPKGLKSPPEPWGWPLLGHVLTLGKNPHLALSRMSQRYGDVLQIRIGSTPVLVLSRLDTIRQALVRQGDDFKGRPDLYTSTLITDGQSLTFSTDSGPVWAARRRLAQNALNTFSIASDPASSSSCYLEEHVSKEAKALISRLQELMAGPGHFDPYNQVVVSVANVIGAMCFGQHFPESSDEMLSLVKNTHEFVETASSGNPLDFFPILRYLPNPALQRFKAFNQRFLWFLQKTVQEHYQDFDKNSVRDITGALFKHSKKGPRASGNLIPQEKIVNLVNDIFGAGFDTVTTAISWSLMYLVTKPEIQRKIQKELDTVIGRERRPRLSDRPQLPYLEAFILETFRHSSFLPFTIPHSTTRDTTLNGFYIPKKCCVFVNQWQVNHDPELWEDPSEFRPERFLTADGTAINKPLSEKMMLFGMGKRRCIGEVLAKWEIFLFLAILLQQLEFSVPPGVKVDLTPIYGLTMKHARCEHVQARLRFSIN
GST-bound ERR alpha LBD, sequence (P11474 193-421): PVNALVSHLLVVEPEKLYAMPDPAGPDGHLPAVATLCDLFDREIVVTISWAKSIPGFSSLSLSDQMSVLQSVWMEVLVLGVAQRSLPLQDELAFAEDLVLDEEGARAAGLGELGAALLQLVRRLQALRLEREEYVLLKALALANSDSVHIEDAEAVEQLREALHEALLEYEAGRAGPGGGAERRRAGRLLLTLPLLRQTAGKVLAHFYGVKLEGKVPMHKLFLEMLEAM
CYP2C9, sequence (P11712 whole entry): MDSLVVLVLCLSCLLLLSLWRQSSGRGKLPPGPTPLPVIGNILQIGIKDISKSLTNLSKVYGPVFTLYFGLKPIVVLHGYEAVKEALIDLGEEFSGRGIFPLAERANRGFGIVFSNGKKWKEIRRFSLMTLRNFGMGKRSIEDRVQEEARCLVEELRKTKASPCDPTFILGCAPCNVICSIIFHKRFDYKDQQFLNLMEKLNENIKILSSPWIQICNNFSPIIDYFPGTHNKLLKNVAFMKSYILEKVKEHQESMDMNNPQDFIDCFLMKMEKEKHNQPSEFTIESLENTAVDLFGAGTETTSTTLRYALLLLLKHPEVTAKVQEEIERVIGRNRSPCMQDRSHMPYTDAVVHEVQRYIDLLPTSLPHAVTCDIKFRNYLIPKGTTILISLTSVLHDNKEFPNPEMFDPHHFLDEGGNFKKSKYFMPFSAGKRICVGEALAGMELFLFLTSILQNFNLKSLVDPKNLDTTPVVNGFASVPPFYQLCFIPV
CYP3A4, sequence (P08684 whole entry): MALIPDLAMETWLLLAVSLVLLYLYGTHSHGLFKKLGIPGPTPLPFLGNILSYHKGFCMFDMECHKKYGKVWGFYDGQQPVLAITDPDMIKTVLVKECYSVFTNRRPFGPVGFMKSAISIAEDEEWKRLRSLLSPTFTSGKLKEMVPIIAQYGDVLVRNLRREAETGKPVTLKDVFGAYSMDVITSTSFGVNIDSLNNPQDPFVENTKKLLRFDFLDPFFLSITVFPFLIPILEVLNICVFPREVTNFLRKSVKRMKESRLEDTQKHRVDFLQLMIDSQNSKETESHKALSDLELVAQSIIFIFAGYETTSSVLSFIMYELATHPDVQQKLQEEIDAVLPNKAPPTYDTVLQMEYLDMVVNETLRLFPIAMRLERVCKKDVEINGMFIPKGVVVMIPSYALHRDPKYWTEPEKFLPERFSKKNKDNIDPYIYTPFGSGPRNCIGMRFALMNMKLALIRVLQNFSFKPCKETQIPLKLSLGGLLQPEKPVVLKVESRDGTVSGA
GST-bound ERR gamma ligand-binding domain (LBD), sequence (P62508 233-457): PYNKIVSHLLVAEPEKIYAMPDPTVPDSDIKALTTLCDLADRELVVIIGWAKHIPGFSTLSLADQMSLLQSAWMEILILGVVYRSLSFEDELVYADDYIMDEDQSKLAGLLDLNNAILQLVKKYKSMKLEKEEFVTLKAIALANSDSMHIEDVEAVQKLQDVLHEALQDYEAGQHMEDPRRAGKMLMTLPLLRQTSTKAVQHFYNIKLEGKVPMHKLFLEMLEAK
CYP2D6, sequence (P10635 whole entry): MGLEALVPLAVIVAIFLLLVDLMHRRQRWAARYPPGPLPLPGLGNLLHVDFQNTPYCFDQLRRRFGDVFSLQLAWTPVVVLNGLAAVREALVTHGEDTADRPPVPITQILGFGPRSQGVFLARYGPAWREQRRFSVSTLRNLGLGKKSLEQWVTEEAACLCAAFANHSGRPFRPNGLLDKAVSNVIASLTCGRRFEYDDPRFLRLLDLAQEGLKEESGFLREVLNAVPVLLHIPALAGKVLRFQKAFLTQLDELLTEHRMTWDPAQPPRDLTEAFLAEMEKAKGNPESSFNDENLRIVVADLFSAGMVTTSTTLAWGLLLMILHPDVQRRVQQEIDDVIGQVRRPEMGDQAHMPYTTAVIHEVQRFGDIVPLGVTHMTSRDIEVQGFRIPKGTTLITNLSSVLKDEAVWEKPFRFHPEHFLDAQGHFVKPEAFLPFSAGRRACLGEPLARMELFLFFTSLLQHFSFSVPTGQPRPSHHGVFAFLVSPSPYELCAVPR
GST-bound ER alpha ligand-binding domain (LBD), sequence (P03372 whole entry, looked up, the tested form may be a part): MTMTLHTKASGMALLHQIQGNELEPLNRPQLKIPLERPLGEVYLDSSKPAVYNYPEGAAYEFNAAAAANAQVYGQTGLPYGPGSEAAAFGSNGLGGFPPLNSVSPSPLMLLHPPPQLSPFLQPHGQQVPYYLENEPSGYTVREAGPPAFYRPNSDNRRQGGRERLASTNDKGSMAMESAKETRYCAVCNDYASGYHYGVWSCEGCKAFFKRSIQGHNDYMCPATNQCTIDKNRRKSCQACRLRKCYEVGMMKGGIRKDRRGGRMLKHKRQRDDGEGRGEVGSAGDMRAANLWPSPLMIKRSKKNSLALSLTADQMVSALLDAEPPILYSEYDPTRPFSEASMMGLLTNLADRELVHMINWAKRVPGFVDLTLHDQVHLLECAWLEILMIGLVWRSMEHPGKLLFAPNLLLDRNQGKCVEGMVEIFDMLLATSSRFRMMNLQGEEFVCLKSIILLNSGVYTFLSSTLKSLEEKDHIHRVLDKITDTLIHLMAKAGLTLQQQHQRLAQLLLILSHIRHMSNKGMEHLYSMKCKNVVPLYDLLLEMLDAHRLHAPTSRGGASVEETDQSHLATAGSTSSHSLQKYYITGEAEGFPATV
ERRβ, sequence (O95718 whole entry, looked up): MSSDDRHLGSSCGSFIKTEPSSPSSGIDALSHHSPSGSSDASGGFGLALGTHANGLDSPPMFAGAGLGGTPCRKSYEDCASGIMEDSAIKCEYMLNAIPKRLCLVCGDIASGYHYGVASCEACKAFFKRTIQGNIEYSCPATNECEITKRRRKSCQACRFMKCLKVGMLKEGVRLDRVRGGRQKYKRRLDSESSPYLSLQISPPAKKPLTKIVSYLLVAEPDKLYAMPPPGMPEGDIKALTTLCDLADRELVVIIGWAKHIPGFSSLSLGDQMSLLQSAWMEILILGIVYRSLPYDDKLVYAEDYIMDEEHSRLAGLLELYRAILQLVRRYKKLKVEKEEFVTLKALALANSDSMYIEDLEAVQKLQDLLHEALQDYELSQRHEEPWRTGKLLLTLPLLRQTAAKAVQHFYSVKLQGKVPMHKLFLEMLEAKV

## OCCC/C(=C(\c1ccc(O)cc1)c1ccc(OCCN2CCCCC2)cc1)c1ccccc1 [Compound 6d]
[1]
  IC50: 93 nM
[2]
  IC50: > 10 µM
[3]
  IC50: 262 nM
[4]
  Functional Assay, Cpds/Ref 5182: 1.69
[4]; 10 μM, 24 hours, AD293
  Functional Assay at 10 μM (% of control), Cpds: 5.2 % of control
[5]
  IC50: > 30 µM

## OCCC/C(=C(\c1ccc(O)cc1)c1ccc(OCCN2CC2)cc1)c1ccccc1 [Compound 6f]
[1]
  IC50: 59 nM
[2]
  IC50: > 10 µM
[3]
  IC50: 296 nM
[4]; 10 μM, 24 hours, AD293
  Functional Assay at 10 μM (% of control), Cpds: 6.75 % of control
[4]; [29]
  Functional Assay, Cpds/Ref 5182: 2.19
[5]
  IC50: > 30 µM

## CN1CCC[C@@H]1COc1ccc(/C(=C(/CCCO)c2ccccc2)c2ccc(O)cc2)cc1 [Compound 6i]
[4]
  Functional Assay at 10 μM (% of control), Cpds: 5 % of control
  Functional Assay, Cpds/Ref 5182: 1.62
[5]
  IC50: > 30 µM

## CC(C)N1CCN(c2ccc(C(=C(CCCO)c3ccccc3)c3ccc(O)cc3)cc2)CC1 [Compound 18a]
[2]
  IC50: > 10 µM
[4]; 10 μM, 24 hours, AD293
  Functional Assay at 10 μM (% of control), Cpds: 4.83 % of control
[4]; [29]
  Functional Assay, Cpds/Ref 5182: 1.18
[6]
  CYP inhibition (% of control) 1A2: 88 % of control
[7]
  CYP inhibition (% of control) 2C9: 86.1 % of control
[8]
  CYP inhibition (% of control) 2C19: 81.2 % of control
[9]
  CYP inhibition (% of control) 2D6: 63.5 % of control
[10]
  CYP inhibition (% of control) 3A4: 66.4 % of control
[11]; 5 hours
  Permeability Pampa: 0.46 10^−6 cm/s
[12]; IV, 1 mg/kg
  AUCINF: 0.49 μMh
  AUCall: 0.42 μMh
  Vss: 25.2 L/kg
  t1/2: 3.8 h
[12]; PO, 10 mg/kg
  AUCINF: 1.29 μMh
  AUCall: 0.81 μMh
  BA: 21.4%
  Tmax: 1.1 h
[12]; PO, 10 mg/kg, read-out: Cmax
  Cmax: 210 nM
[13]; for each concentration and each time
  radioactive iodine uptake in CAL62 cells: significant increase
[14]
  ERRγ mRNA expression, decrease compared with vehicle treated group: about 16 times
[15]
  NIS mRNA expression, increase compared with vehicle-treated group: about 2 times
[16]
  ERRγ protein expression, decrease compared with vehicle treated group: about 2.8 times
[17]; biotinylated membrane protein
  increase in membrane fully glycosylated NIS protein: 8.1 times
  increase in membrane partially glycosylated NIS protein: 6.4 times
[17]; text says significantly increased, then 'decreased by'
  total NIS protein expression, change compared with vehicle treated group: about 1.9 times
[18]; CAL62 cells, single agent
  cytotoxic effect, alone (clone formation assay): minimal cytotoxic effect
[19]; 100 mpk orally daily for 6 days
  radioactive uptake in CAL62 tumor, increase compared with vehicle group: 4.4 times
[19]; 200 mpk orally daily for 6 days
  radioactive uptake in CAL62 tumor, increase compared with vehicle group: 16.2 times
[20]
  tumor growth (optical imaging): significant tumor growth inhibitory efficiency
[21]
  IC50: 18.7 µM

## CN1CCN(c2ccc(/C(=C(/CCCO)c3ccccc3)c3ccc(N)cc3)cc2)CC1 [Compound 26a, (Z)-5-(4-aminophenyl)-5-(4-(4-methylpiperazin-1-yl)phenyl)-4-phenylpent-4-en-1-ol]
[4]; 10 μM, 24 hours, AD293
  Functional Assay at 10 μM (% of control), Cpds: 2.66 % of control
[4]; [29]
  Functional Assay, Cpds/Ref 5182: 0.84
[6]
  CYP inhibition (% of control) 1A2: >100 % of control
[8]
  CYP inhibition (% of control) 2C19: 89 % of control
[11]
  Papp at 5 h: 1.58 ×10⁻⁶ cm/s
[22]
  MS(Microsomal Stability) (%) human: 72.3%
[23]
  MS(Microsomal Stability) (%) rat: 46.7%
[5]
  IC50: > 30 µM

## Nc1ccc(/C(=C(\CCCO)c2ccccc2)c2ccc(C3CCN(C4CC4)CC3)cc2)cc1 [Compound 26d]
[6]
  CYP inhibition (% of control) 1A2: >100 % of control
[7]
  CYP inhibition (% of control) 2C9: 96.6 % of control
[8]
  CYP inhibition (% of control) 2C19: >100 % of control
[9]
  CYP inhibition (% of control) 2D6: 86.1 % of control
[10]
  CYP inhibition (% of control) 3A4: 57.3 % of control
[11]
  Papp at 5 h: 1.04 ×10⁻⁶ cm/s
[22]
  MS(Microsomal Stability) (%) human: 77.5%
[24]
  MS(Microsomal Stability) (%) dog: 51.5%
[23]
  MS(Microsomal Stability) (%) rat: 72.2%
[25]
  MS(Microsomal Stability) (%) mouse: 38.3%
[5]
  IC50: 26 µM

## OCCC/C(=C(\c1ccc(O)cc1)c1ccc(OCCN2CC3CC3C2)cc1)c1ccccc1 (centres unmarked) [Compound 38a, (Z)-4-(1-(4-(2-(3-azabicyclo[3.1.0]hexan-3-yl)ethoxy)phenyl)-5-hydroxy-2-phenylpent-1-en-1-yl)phenol]
[1]
  IC50: 79 nM
[2]
  IC50: > 10 µM
[26]
  IC50: 8.13 µM
[3]
  IC50: 437 nM
[4]; 10 μM, 24 hours, AD293
  Functional Assay at 10 μM (% of control), Cpds: 1.45 % of control
[4]; [29]
  Functional Assay, Cpds/Ref 5182: 1.42
[5]
  IC50: 16.1 µM

## OCCC/C(=C(\c1ccc(O)cc1)c1ccc(OCCN2CCC[C@@H]2CO)cc1)c1ccccc1 [Compound 38c]
[1]
  IC50: 91 nM
[2]
  IC50: > 10 µM
[26]
  IC50: > 10 µM
[3]
  IC50: 408 nM
[4]
  Functional Assay, Cpds/Ref 5182: 0.99
[4]; 10 μM, 24 hours, AD293
  Functional Assay at 10 μM (% of control), Cpds: 4.06 % of control
[6]
  CYP inhibition (% of control) 1A2: 79.2 % of control
[7]
  CYP inhibition (% of control) 2C9: 55.3 % of control
[8]
  CYP inhibition (% of control) 2C19: 58.8 % of control
[9]
  CYP inhibition (% of control) 2D6: 54.3 % of control
[10]
  CYP inhibition (% of control) 3A4: 61.5 % of control

## N#CC(=C(/N)Sc1ccccc1N)/C(C#N)=C(\N)Sc1ccccc1N [Compound U0126]
[13]; MEK inhibitor pre-incubation 30 minutes
  inhibition of radioactive iodine uptake increase by compound 18a: completely inhibited
[27]
  inhibition of relative increase of phosphorylated ERK1 and ERK2 by compound 18a: completely inhibited

## CN(C)CCOc1ccc(/C(=C(/CCCO)c2ccccc2)c2ccc(O)cc2)cc1 [GSK5182, (Z)-4-(1-(4-(2-(dimethylamino)ethoxy)phenyl)-5-hydroxy-2-phenylpent-1-en-1-yl)phenol, reference compound]
[10]
  CYP inhibition (% of control) 3A4: 83 % of control
[11]
  Papp at 5 h: 0.11 to 0.82 ×10⁻⁶ cm/s
[12]; in vivo, IV, 1 mg/kg
  half-life: 138 min
[12]; in vivo, IV, 1 mg/kg, read-out: Vss
  Vd: 9.1 L/kg
[12]; in vivo, PO, 10 mg/kg, read-out: Cl(observed)/F
  CL/F: 134 mL/min/kg
[12]; in vivo, PO, 10 mg/kg, read-out: Tmax
  Tmax: 1.9 h
[12]; IV, 1 mg/kg
  AUCINF: 0.94 μMh
  AUCall: 0.89 μMh
  Cl(observed)/F: 44 mL/min/kg
[12]; PO, 10 mg/kg
  AUCINF: 0.78 μMh
  AUCall: 0.68 μMh
  BA: 8.4%
[12]; in vivo, po, 10 mg/kg
  Cmax: 130 nM
[18]; CAL-62, combination with 131I
  colony-formability, combining 131I and GSK5182: about 58.5±7.4%
[22]
  MS(Microsomal Stability) (%) human: 42.8-45.1%
[23]
  MS(Microsomal Stability) (%) rat: 26.0-29.1%
[28]
  radioiodine uptake in the tumor, ATC mouse tumor model: not increased

## [K+].[O-][Cl+3]([O-])([O-])[O-] [KClO4]
[13]; co-incubated with compound 18a-treated CAL62 cells, 300 μM KClO4
  block of radioactive iodine uptake increased in compound 18a-treated cells: completely blocks

## COc1cccc(-c2cc(=O)c3ccccc3o2)c1N [PD98059]
[13]
  inhibition of radioactive iodine uptake increase by compound 18a: completely inhibited
[27]
  inhibition of relative increase of phosphorylated ERK1 and ERK2 by compound 18a: completely inhibited
